{"source": "ChEMBL document CHEMBL4422617", "about": "“Recent advances in the discovery of small molecules targeting glioblastoma” (Eur J Med Chem, 2019)", "key": {"[1]": {"assay": "Antiproliferative activity against human M059K cells after 48 hrs by WST-1 assay", "format": "functional, cell-based"}, "[2]": {"test_system": "U-87 MG", "assay": "Antiproliferative activity against human U87MG cells after 24 hrs by WST-1 assay", "format": "functional, cell-based, U-87MG ATCC"}, "[3]": {"assay": "Half life in […] mouse at 25 micromol/kg, ip administered as single dose by mass spectrometric analysis", "format": "ADME, organism-based", "conditions": "in vivo, 25 µmol/kg"}, "[4]": {"test_system": "T98G", "assay": "Antiproliferative activity against human T98G cells after 5 days by CyQuantGR dye-based fluorescence assay", "format": "functional, cell-based", "conditions": "120 h"}, "[5]": {"assay": "Tmax in […] mouse at 25 micromol/kg, ip administered as single dose by mass spectrometric analysis", "format": "ADME, organism-based", "conditions": "in vivo, 25 µmol/kg"}, "[6]": {"test_system": "U-87 MG", "assay": "Antiproliferative activity against human U87MG cells after 5 days by CyQuantGR dye-based fluorescence assay", "format": "functional, cell-based, U-87MG ATCC", "conditions": "120 h"}, "[7]": {"assay": "Cmax in […] mouse at 25 micromol/kg, ip administered as single dose by mass spectrometric analysis", "format": "ADME, organism-based", "design": "route intraperitoneal", "conditions": "in vivo, 25 µmol/kg"}, "[8]": {"test_system": "U-118-MG", "assay": "Antiproliferative activity against human U118MG cells after 5 days by CyQuantGR dye-based fluorescence assay", "format": "functional, cell-based", "conditions": "120 h"}, "[9]": {"test_system": "U-251", "assay": "Antiproliferative activity against human U251 cells after 5 days by CyQuantGR dye-based fluorescence assay", "format": "functional, cell-based", "conditions": "U-251, 120 h"}, "[10]": {"test_system": "PBMC", "assay": "Cytotoxicity against human PBMC after 72 hrs by MTT assay", "format": "cell-based"}, "[11]": {"test_system": "SF-295", "assay": "Cytotoxicity against human SF295 cells after 72 hrs by MTT assay", "format": "functional, cell-based", "conditions": "SF-295, 72 h"}, "[12]": {"assay": "Cytotoxicity against human GBM6 cells after 72 hrs by MTS assay", "format": "functional", "conditions": "GBM6, 72 h, read-out: ED50 (the source's name)"}, "[13]": {"assay": "Antiproliferative activity against human U3005MG cells by CellTiter-Glo assay", "format": "functional, cell-based"}, "[14]": {"assay": "Antiproliferative activity against human U3046MG cells by CellTiter-Glo assay", "format": "functional, cell-based"}, "[15]": {"test_system": "T98G", "assay": "Antiproliferative activity against human T98G cells after 72 hrs by MTS assay", "format": "functional, cell-based"}, "[16]": {"test_system": "U-87 MG", "assay": "Antiproliferative activity against human U87MG cells after 72 hrs by MTS assay", "format": "functional, cell-based, U-87MG ATCC"}, "[17]": {"assay": "Antiproliferative activity against human PRT-HU2 cells after 72 hrs by MTS assay", "format": "functional, cell-based"}, "[18]": {"test_system": "U373 MG", "assay": "Antiproliferative activity against human U373MG cells after 72 hrs by MTS assay", "format": "functional, cell-based, U-373MG ATCC"}, "[19]": {"test_system": "U-251", "assay": "Antiproliferative activity against human U251 cells after 72 hrs by coulter counting analysis", "format": "functional, cell-based", "conditions": "U-251, 72 h"}, "[20]": {"assay": "Antiproliferative activity against human DBTRG cells after 72 hrs by coulter counting analysis", "format": "functional, cell-based"}, "[21]": {"test_system": "U-87 MG", "assay": "Antiproliferative activity against human U87MG cells after 72 hrs by coulter counting analysis", "format": "functional, cell-based, U-87MG ATCC"}, "[22]": {"test_system": "SF-295", "assay": "Antiproliferative activity against human SF295 cells after 72 hrs by MTT assay", "format": "functional, cell-based", "conditions": "SF-295, 72 h"}, "[23]": {"test_system": "U-251", "assay": "Antiproliferative activity against human U251 cells by MTT assay", "format": "functional, cell-based"}, "[24]": {"test_system": "C6", "assay": "Antiproliferative activity against rat C6 cells at 50 uM after 24 hrs by MTT assay relative to control", "format": "functional"}, "[25]": {"assay": "Antiproliferative activity against human D456 cells after 7 days […] by CellTiter Glo assay", "format": "functional, cell-based", "conditions": "168 h"}, "[26]": {"test_system": "U373 MG", "assay": "Antiproliferative activity against human U373MG cells after 48 hrs by MTS assay", "format": "functional, cell-based, U-373MG ATCC"}, "[27]": {"test_system": "U-87 MG", "assay": "Antiproliferative activity against human U87MG cells after 48 hrs by MTS assay", "format": "functional, cell-based, U-87MG ATCC"}, "[28]": {"test_system": "U-87 MG", "assay": "Antiproliferative activity against human U87 cells after 48 hrs by MTT assay", "format": "functional, U-87MG ATCC"}, "[29]": {"test_system": "U-87 MG", "assay": "Cytotoxicity against human U87 cells expressing EGFRvIII after 72 hrs by AlamarBlue assay", "format": "functional, cell-based, U-87MG ATCC"}, "[30]": {"test_system": "U-251", "assay": "Cytotoxicity against human U251 cells after 72 hrs by AlamarBlue assay", "format": "functional, cell-based", "conditions": "U-251, 72 h"}, "[31]": {"test_system": "U-87 MG", "assay": "Cytotoxicity against human U87 cells after 72 hrs by AlamarBlue assay", "format": "functional, cell-based, U-87MG ATCC"}, "[32]": {"test_system": "GBM", "assay": "Cytotoxicity against GBM cells derived from human patient after 72 hrs by AlamarBlue assay", "format": "functional, cell-based"}, "[33]": {"test_system": "U-87 MG", "assay": "Antiproliferative activity against human U87MG cells after 72 hrs by MTT assay", "format": "functional, cell-based, U-87MG ATCC"}, "[34]": {"test_system": "U-251", "assay": "Antiproliferative activity against human U251MG cells after 120 hrs by SRB assay", "format": "functional, cell-based", "conditions": "U-251, 120 h"}}, "note": "pEC50, pIC50: −log10 of the molar value."}
{"smiles": "COc1ccc(/N=C/c2c(O)ccc3c2oc2cc(Cl)c(O)c(Cl)c23)cc1", "values": [{"measurement": "pIC50", "setting": "[1]", "value": 4.40}, {"measurement": "pIC50", "setting": "[2]", "value": 4.60}]}
{"smiles": "Cc1ccc(N(CCn2nnc3c(C(N)=O)ncn3c2=O)CCn2nnc3c(C(N)=O)ncn3c2=O)cc1", "values": [{"measurement": "half-life", "setting": "[3]", "value": 14, "unit": "min"}, {"measurement": "pIC50", "setting": "[4]", "value": 4.95}, {"measurement": "Tmax", "setting": "[5]", "value": 10, "unit": "min"}, {"measurement": "pIC50", "setting": "[6]", "value": 4.85}, {"measurement": "Cmax", "setting": "[7]", "value": 260, "unit": "nM"}, {"measurement": "pIC50", "setting": "[8]", "value": 5.00}, {"measurement": "pIC50", "setting": "[9]", "value": 5.28}]}
{"smiles": "O=C1C=C(N[C@@H](Cc2ccccc2)C(=O)O)C(=O)c2ccccc21", "values": [{"measurement": "pIC50", "setting": "[10]", "value": 4.42}, {"measurement": "pIC50", "setting": "[11]", "value": 5.70}]}
{"smiles": "CN1CCN(C(=O)c2ccc3c(NC4CCN(Cc5ccccc5)CC4)c4ccccc4nc3c2)CC1", "values": [{"measurement": "pEC50", "setting": "[12]", "value": 5.39}]}
{"smiles": "CN1CCN(CCCN2c3ccccc3Sc3ccc(C(F)(F)F)cc32)CC1", "note": "[TRIFLUOPERAZINE]", "values": [{"measurement": "pEC50", "setting": "[13]", "value": 5.73}, {"measurement": "pEC50", "setting": "[14]", "value": 5.87}]}
{"smiles": "Clc1ccccc1CNc1ncnc2c1cnn2CC(Cl)c1ccc(Br)cc1", "note": "(stereo unspecified)", "values": [{"measurement": "pIC50", "setting": "[15]", "value": 4.90}, {"measurement": "pIC50", "setting": "[16]", "value": 4.83}, {"measurement": "pIC50", "setting": "[17]", "value": 4.84}, {"measurement": "pIC50", "setting": "[18]", "value": 4.75}]}
{"smiles": "Nc1c(-c2cccnc2)ncc2c1C(=O)c1c(-c3ccccn3)nn(-c3ccc(F)cc3F)c1C2=O", "values": [{"measurement": "pIC50", "setting": "[19]", "value": 5.60}, {"measurement": "pIC50", "setting": "[20]", "value": 5.60}, {"measurement": "pIC50", "setting": "[21]", "value": 5.60}]}
{"smiles": "CC1(C)OC2=C(C(=O)C(=O)c3ccccc32)[C@H](n2cc(C[Se]c3ccc(F)cc3)nn2)[C@H]1Br", "values": [{"measurement": "pIC50", "setting": "[22]", "value": 5.83}]}
{"smiles": "CCN(CC)CCCC(C)Nc1c2ccc(Cl)cc2nc2ccc(OC)cc12", "note": "(stereo unspecified) [QUINACRINE]", "values": [{"measurement": "pIC50", "setting": "[23]", "value": 5.30}]}
{"smiles": "O=C(O)CNC1=CC(=O)c2ccccc2C1=O", "values": [{"measurement": "pIC50", "setting": "[10]", "value": 4.62}, {"measurement": "pIC50", "setting": "[11]", "value": 5.62}]}
{"smiles": "Brc1c(Br)c(Br)c2[nH]cnc2c1Br", "values": [{"measurement": "Activity", "setting": "[24]", "value": 50, "unit": "%"}]}
{"smiles": "O=C1CC(c2ccc(-c3cc[nH]n3)s2)c2cc(N3CCNC3=O)ccc2N1", "note": "(stereo unspecified)", "values": [{"measurement": "pIC50", "setting": "[25]", "value": 5.77}]}
{"smiles": "O=C1[C@@H]2CS[C@]3(C(=O)Nc4ccccc43)N2C(=O)N1Cc1ccc(Cl)cc1", "values": [{"measurement": "pIC50", "setting": "[26]", "value": 5.24}, {"measurement": "pIC50", "setting": "[27]", "value": 5.60}]}
{"smiles": "Cc1nc(=O)c2c(-c3ccccc3)c(C(=O)c3ccccc3)[nH]c2[nH]1", "values": [{"measurement": "GI50", "setting": "[28]", "value": 0.077, "unit": "µM"}]}
{"smiles": "O=C(CCCc1ccc(-c2cc3ccccc3cn2)cc1)Nc1ccc(O)cc1", "values": [{"measurement": "pEC50", "setting": "[29]", "value": "5.89 to 6.22"}, {"measurement": "pEC50", "setting": "[30]", "value": "5.89 to 6.22"}, {"measurement": "pEC50", "setting": "[31]", "value": "5.89 to 6.22"}, {"measurement": "pEC50", "setting": "[32]", "value": 6.27}]}
{"smiles": "O=C1C=C(O)C(=O)C(CC2CCC3CCCCC3C2)=C1O", "note": "(stereo unspecified)", "values": [{"measurement": "pIC50", "setting": "[33]", "value": 4.63}]}
{"smiles": "CN(C)CCN1C(=O)c2cc(NCCc3ccc(O)c(CN(C)C)c3)c3c4c(cc(NCCc5ccc(O)c(CN(C)C)c5)c(c24)C1=O)C(=O)N(CCN(C)C)C3=O", "values": [{"measurement": "pIC50", "setting": "[34]", "value": 7.48}]}
